Drawing on US20260001889A1, “COMPOSITIONS USEFUL FOR MODULATING SPLICING” (Skyhawk Therapeutics, Inc., priority 2022, published 2026), this text covers EC50 and IC50 for 21 compounds.

Test [1] concerns ATXN3-HiBiT protein. Nature of the test: ATXN3 Total Protein Assay (Kelly-ATXN3-HiBiT luminescence). The settings on record: Kelly-ATXN3-HiBiT cells, 48 h after addition of compound. It is filed as cell-based. Put shortly:
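Kelly cells with homozygous C-terminal HiBiT knock-in on endogenous ATXN3, 2000 per well, dosed 24 h after seeding. HiBiT lytic luminescence read 48 h after compound; sister plate read with CellTiter-Glo for viability; fold change vs DMSO.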
(The HiBiT peptide binds its large partner to form an active luciferase.)

In test [2] the test system is total ATXN3 protein. Nature of the test: ATXN3 Total Protein Assay (Mesoscale Discovery, SK-N-MC cells). It is filed as cell-based, Human. The settings on record: incubation for 48 hours, MSD assay. Summed up: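 Human SK-N-MC neuroblastoma cells treated with compound at 30 μM to 0.6 nM for 48 h, then lysed with protease inhibitors. Total ATXN3 quantified by MSD sandwich immunoassay (mouse capture, rabbit detect antibodies, anti-rabbit MSD-ST secondary) against recombinant ATXN3 standards.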

In test [3] the test system is ATXN3 transcripts containing exon 4. Kind of test: ATXN3 Quantitative Splicing Assay (qPCR, E4E5 primers/probe). Format: cell-based. The following applies: Homo sapiens, SK-N-MC cells, compounds for 24 h. Summed up:
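SK-N-MC human neuroblastoma cells treated 24 h with compound from 30 μM to 0.6 nM, 24 h after plating. Lysate cDNA was run in TaqMan qPCR, with primers/probe E4E5 detecting exon 4-containing ATXN3 transcripts and E8E9 measuring total ATXN3.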
(Real-time PCR tracks product formation cycle by cycle.)

The structures appear in SMILES notation.

Compound `N[C@@H](CCOC(F)F)Cc1oc2c(NCc3nccs3)cc(Cl)nc2c1Br` [Compound 216, 2-[(S)-2-amino-4-difluoromethoxybutyl]-3-bromo-5-chloro-7-{[(1,3-thiazol-2-yl)methyl]amino}-1-oxa-4-azaindene] gave an EC50 in test [1] of 101 to 500 nM. Besides, the IC50 in test [2] and in test [3] was 101 to 500 nM each time.
`COC[C@H](N)C(F)(F)c1oc2c(NCc3cccs3)cc(Cl)nc2c1Br` [Compound 193, 2-[(S)-2-amino-1,1-difluoro-3-methoxypropyl]-3-bromo-5-chloro-7-thenylamino-1-oxa-4-azaindene] yielded an EC50 in test [1] of 501 to 5000 nM. For the same compound, the IC50 in test [2] and in test [3] was 501 to 5000 nM in each case.
Take `Cc1c(C[C@@H](N)[C@H](C)F)oc2c(NCc3cccs3)cc(C#N)nc12` [Compound 111, 2-[(2R,3S)-2-amino-3-fluorobutyl]-3-methyl-7-thenylamino-1-oxa-4-aza-5-indenecarbonitrile]: the EC50 in test [1] lay in the range of 101 to 500 nM. Further, the IC50 in test [2] and in test [3] was 101 to 500 nM in each case.
For the compound `C[C@H](N)Cc1oc2c(NCc3cccs3)c(F)c(Cl)nc2c1Br` [Compound 275, 2-[(S)-2-aminopropyl]-3-bromo-5-chloro-6-fluoro-7-thenylamino-1-oxa-4-azaindene], the EC50 in test [1] lay within 501 to 5000 nM. Moreover, the IC50 in test [2] and in test [3] was 501 to 5000 nM in each case.
In test [1], `N[C@H](Cc1oc2c(NCc3cccs3)cc(Cl)nc2c1Br)C1COC1` [Compound 98, 2-[(R)-2-amino-2-(3-oxetanyl)ethyl]-3-bromo-5-chloro-7-thenylamino-1-oxa-4-azaindene] registered an EC50 of 501 to 5000 nM. Further, the half-inhibitory concentration (IC50) in test [2] and in test [3] was 501 to 5000 nM throughout.
With `C[C@H](F)[C@H](N)Cc1oc2c(NCc3cccs3)cc(Cl)nc2c1C1CC1` [Compound 240, 2-[(2R,3S)-2-amino-3-fluorobutyl]-5-chloro-3-cyclopropyl-7-thenylamino-1-oxa-4-azaindene], the EC50 in test [1] lay in the range of 501 to 5000 nM. In addition, the IC50 in test [2] and in test [3] was 501 to 5000 nM throughout.
In the case of `C[C@H](F)[C@H](N)Cc1oc2c(NCc3ccccc3)cc(Cl)nc2c1Br` [Compound 92, 2-[(2R,3S)-2-amino-3-fluorobutyl]-7-benzylamino-3-bromo-5-chloro-1-oxa-4-azaindene], the concentration giving a half-maximal response (EC50) in test [1] is 101 to 500 nM. Also, the IC50 in test [2] and in test [3] was 101 to 500 nM each time.
As to `C[C@H](F)[C@H](N)Cc1oc2c(NCc3cccs3)cc(Cl)nc2c1-c1ccnn1C` [Compound 334, 2-[(2R,3S)-2-amino-3-fluorobutyl]-5-chloro-3-(1-methyl-5-pyrazolyl)-7-thenylamino-1-oxa-4-azaindene], in test [1], the EC50 is 10000 to 40000 nM. For the same compound, the IC50 in test [2] and in test [3] was 10000 to 40000 nM each time.
Compound `C[C@H](N)Cc1oc2c(NCc3ccco3)cc(Cl)nc2c1Br` [Compound 34, 2-[(S)-2-aminopropyl]-3-bromo-5-chloro-7-(furfurylamino)-1-oxa-4-azaindene] returned an EC50 in test [1] of 0.01 to 100 nM. For the same compound, the IC50 in test [2] and in test [3] was 0.01 to 100 nM throughout.
On to `C#Cc1c(C[C@@H](N)C2CC2)oc2c(NCc3cccs3)cc(Cl)nc12` [Compound 180, 2-[(R)-2-amino-2-cyclopropylethyl]-5-chloro-3-ethynyl-7-thenylamino-1-oxa-4-azaindene], for which the EC50 in test [1] fell in the range of 101 to 500 nM. The IC50 in test [2] and in test [3] was 101 to 500 nM in each case.
`C[C@H](F)[C@H](N)Cc1oc2c(NCc3ccccc3F)cc(Cl)nc2c1Br` [Compound 152, 2-[(2R,3S)-2-amino-3-fluorobutyl]-3-bromo-5-chloro-7-{[(o-fluorophenyl)methyl]amino}-1-oxa-4-azaindene] displayed an EC50 in test [1] of 501 to 5000 nM. Moreover, the IC50 in test [2] and in test [3] was 101 to 500 nM in each case.
Turning to `C[C@@H](F)[C@H](N)Cc1oc2c(NCc3ccc(F)s3)cc(Cl)nc2c1Br` [Compound 95, 2-[(2R,3R)-2-amino-3-fluorobutyl]-3-bromo-5-chloro-7-{[(5-fluoro-2-thienyl)methyl]amino}-1-oxa-4-azaindene], the EC50 in test [1] lay in the range of 501 to 5000 nM. Moreover, the IC50 in test [2] and in test [3] was 501 to 5000 nM throughout.
On to `COC[C@H](N)Cc1oc2c(NCc3ccccc3)cc(Cl)nc2c1Cl` [Compound 51, 2-[(R)-2-amino-3-methoxypropyl]-7-benzylamino-3,5-dichloro-1-oxa-4-azaindene], for which the EC50 in test [1] was in the range of 101 to 500 nM. The IC50 in test [2] and in test [3] was 101 to 500 nM each time.
`[2H]C([2H])(Nc1cc(Cl)nc2c(Br)c(C[C@H](C)N)oc12)c1cccs1` [Compound 221, 2-[(S)-2-aminopropyl]-3-bromo-5-chloro-7-{[(2-thienyl)(^2H2)methyl]amino}-1-oxa-4-azaindene] gave a concentration giving a half-maximal response (EC50) in test [1] of 0.01 to 100 nM. For the same compound, the IC50 in test [2] and in test [3] was 0.01 to 100 nM each time.
`N#Cc1cc(NCc2cccs2)c2oc(C[C@@H](N)CO)c(Br)c2n1` [Compound 60, 2-[(R)-2-amino-3-hydroxypropyl]-3-bromo-7-thenylamino-1-oxa-4-aza-5-indenecarbonitrile] registered an EC50 in test [1] of 101 to 500 nM. Besides, the IC50 in test [2] and in test [3] was 101 to 500 nM each time.
Compound `C[C@H](N)Cc1oc2c(NCc3cccs3)cc(Cl)nc2c1-c1ccco1` [Compound 311, 2-[(S)-2-aminopropyl]-5-chloro-3-(2-furyl)-7-thenylamino-1-oxa-4-azaindene] came in with an EC50 in test [1] of 501 to 5000 nM. Further, the IC50 in test [2] was 5000 to 10000 nM; in test [3], 501 to 5000 nM.
The compound `C[C@H](N)Cc1oc2c(NCc3ccc(F)cc3)cc(Cl)nc2c1Br` [Compound 338, 2-[(S)-2-aminopropyl]-3-bromo-5-chloro-7-{[(p-fluorophenyl)methyl]amino}-1-oxa-4-azaindene] came in with a 50% effective concentration (EC50) in test [1] of 501 to 5000 nM. For the same compound, the IC50 in test [2] and in test [3] was 501 to 5000 nM throughout.
In the case of `N[C@@H](COC(F)(F)F)Cc1oc2c(NCc3cccs3)cc(Cl)nc2c1Br` [Compound 116, 2-[(R)-2-amino-3-trifluoromethoxypropyl]-3-bromo-5-chloro-7-thenylamino-1-oxa-4-azaindene], in test [1], the EC50 lay in the range of 501 to 5000 nM. The 50% inhibitory concentration (IC50) in test [2] and in test [3] was 101 to 500 nM in each case.
In turn, `Cc1c(C[C@@H](N)CC2CC2)oc2c(NCc3cccs3)cc(Cl)nc12` [Compound 14, 2-[(S)-2-amino-3-cyclopropylpropyl]-5-chloro-3-methyl-7-thenylamino-1-oxa-4-azaindene] came in with an EC50 in test [1] of 0.01 to 100 nM. Besides, the IC50 in test [2] and in test [3] was 101 to 500 nM in each case.
Take `C[C@@H](F)[C@H](N)Cc1oc2c(NCc3nccs3)cc(Cl)nc2c1Br` [Compound 91, 2-[(2R,3R)-2-amino-3-fluorobutyl]-3-bromo-5-chloro-7-{[(1,3-thiazol-2-yl)methyl]amino}-1-oxa-4-azaindene]: the EC50 in test [1] fell in the range of 501 to 5000 nM. In addition, the IC50 in test [2] and in test [3] was 501 to 5000 nM in each case.
On to `NC(Cc1oc2c(NCc3cccs3)cc(Cl)nc2c1Br)CC1(F)CC1` (stereo not drawn) [Compound 85, 2-[2-amino-3-(1-fluorocyclopropyl)propyl]-3-bromo-5-chloro-7-thenylamino-1-oxa-4-azaindene], for which, in test [1], the EC50 fell in the range of 101 to 500 nM. For the same compound, the IC50 in test [2] and in test [3] was 101 to 500 nM in each case.

By EC50 is commonly meant the concentration needed to bring the measured effect to its halfway point. Higher therefore signals a less potent agent. By IC50 is commonly meant the concentration needed to halve the response being measured. Low values mean inhibition by little substance, high ones a need for much substance.
